The numbers were not newly measured in patent publication US10906892B2, “LFA-1 inhibitor and methods of preparation and polymorph thereof” (NOVARTIS PHARMACEUTICALS CORPORATION, priority 2012, dated 2021), which cites them from elsewhere.

Series [1] deals with Lymphocyte Function-Associated Antigen-1 (LFA-1) interactions with ICAM (Homo sapiens, UniProt P20701). Particulars: background statement, no data given.
The conditions of series [2]: background statement, no data given.

Lymphocyte Function-Associated Antigen-1 (LFA-1) interactions with ICAM, sequence (P20701 26-1170): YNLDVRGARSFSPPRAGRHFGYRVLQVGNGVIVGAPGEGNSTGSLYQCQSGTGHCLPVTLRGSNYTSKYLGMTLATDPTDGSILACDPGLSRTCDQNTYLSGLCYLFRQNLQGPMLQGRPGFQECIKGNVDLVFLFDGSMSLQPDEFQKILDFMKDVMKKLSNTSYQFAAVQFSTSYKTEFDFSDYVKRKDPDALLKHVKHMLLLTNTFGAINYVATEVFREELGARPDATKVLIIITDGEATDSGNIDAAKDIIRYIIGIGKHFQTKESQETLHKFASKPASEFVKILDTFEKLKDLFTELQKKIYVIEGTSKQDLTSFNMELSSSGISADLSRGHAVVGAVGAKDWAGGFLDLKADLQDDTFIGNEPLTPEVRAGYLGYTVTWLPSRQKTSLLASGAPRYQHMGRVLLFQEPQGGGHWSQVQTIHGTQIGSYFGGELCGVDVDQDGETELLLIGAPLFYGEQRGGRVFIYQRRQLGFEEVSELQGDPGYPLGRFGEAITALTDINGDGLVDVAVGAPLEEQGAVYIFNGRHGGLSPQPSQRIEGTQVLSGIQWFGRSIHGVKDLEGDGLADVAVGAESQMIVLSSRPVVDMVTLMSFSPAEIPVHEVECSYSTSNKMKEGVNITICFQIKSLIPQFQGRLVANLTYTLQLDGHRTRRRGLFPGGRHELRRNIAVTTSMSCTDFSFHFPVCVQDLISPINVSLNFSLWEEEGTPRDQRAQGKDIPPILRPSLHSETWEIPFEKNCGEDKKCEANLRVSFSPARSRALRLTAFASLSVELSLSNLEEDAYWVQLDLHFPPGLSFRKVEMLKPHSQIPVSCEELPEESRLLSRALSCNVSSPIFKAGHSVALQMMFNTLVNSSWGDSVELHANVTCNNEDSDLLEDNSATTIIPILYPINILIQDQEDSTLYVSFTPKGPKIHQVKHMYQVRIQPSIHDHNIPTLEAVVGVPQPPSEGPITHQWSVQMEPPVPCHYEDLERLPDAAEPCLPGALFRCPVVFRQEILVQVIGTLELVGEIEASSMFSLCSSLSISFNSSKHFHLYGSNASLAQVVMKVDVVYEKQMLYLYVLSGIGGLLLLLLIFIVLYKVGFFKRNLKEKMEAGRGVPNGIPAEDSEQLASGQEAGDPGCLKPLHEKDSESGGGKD
Lymphocyte Function-Associated Antigen-1 (LFA-1) interactions with ICAM, sequence (P05107 23-769 partner): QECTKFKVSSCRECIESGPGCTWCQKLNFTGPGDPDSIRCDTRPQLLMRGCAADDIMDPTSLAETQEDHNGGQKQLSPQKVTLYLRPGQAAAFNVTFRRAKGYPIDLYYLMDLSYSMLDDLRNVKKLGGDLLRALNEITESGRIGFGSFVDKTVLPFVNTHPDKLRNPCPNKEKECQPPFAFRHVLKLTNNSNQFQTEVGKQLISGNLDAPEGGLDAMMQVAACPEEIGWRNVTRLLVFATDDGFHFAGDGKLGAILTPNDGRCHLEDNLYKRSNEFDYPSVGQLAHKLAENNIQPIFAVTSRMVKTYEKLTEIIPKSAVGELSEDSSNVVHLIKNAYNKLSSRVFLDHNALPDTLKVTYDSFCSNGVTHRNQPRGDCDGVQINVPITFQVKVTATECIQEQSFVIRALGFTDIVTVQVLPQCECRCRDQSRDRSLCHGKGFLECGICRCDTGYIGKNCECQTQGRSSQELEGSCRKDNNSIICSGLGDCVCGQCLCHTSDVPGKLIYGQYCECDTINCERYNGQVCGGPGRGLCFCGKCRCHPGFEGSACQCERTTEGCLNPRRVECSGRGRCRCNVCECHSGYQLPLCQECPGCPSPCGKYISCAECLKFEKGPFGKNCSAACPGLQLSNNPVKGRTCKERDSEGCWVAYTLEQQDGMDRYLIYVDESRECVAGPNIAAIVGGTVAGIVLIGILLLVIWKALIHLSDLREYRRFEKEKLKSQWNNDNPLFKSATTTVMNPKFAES

Consider `CS(=O)(=O)c1cccc(C[C@H](NC(=O)c2c(Cl)cc3c(c2Cl)CCN(C(=O)c2ccc4ccoc4c2)C3)C(=O)O)c1` [Formula I], for which, in series [1], the “inhibition of LFA-1 interactions with ICAM” value is recorded as “effective inhibitor”. In addition, the systemic clearance entry in series [2] is recorded as “rapid systemic clearance”.
